Earlier results as cited in patent publication US20060084635A1, “Aspirin and vitamin and/or trace element compositions for the amelioration and treatment of vascular disease” (priority 1993, published 2006).
Entries after “also recorded” stand apart in the source; their conditions may differ. Like-named read-outs stand apart in the source and are kept apart here.

Experiments:
vascular tissue = tested on: vascular tissue; parameters: key: + Beneficial; 0 No Effect; − Detrimental
[1] = tested on: prostaglandins in the vascular wall and platelets
[2] = tested on: serum cholesterol and triglycerides; conditions: for blood serum levels of cholesterol and triglycerides: in vivo
[3] = in sufficient amounts
[4] = tested on: vascular lesions in branches of the aorta and cerebral arteries; conditions: rats; diet containing seven times the level of zinc required for normal growth
[5] = tested on: immune-triggered endothelial damage
[6] = tested on: vascular wall wound healing; conditions: rat, in vivo
atherosclerotic lesions = conditions: animals fed an atherogenic diet
[7] = tested on: retirement community residents; conditions: for All Deaths RR / Ischemic Heart Disease RR / Myocardial Infarction RR / Other Heart Disease RR / Stroke RR / Total Cardiovascular Deaths RR: relative risk vs Aspirin− Vitamin−

## CC(=O)Oc1ccccc1C(=O)O [Aspirin, aspirin]
platelets; through platelet activity
  tendency of blood clot formation: reduces the tendency of blood clot formation
Vascular tissue; Table 1
  Anti-Aggregant: +
  Decreased Formation of Clots: +
  Decreased Immune-Induced Lesions: 0
  Decreased Peroxidation: 0
  Decreases Serum Cholesterol: 0
  Inhibition of Cholesterol Migration: +
  Platelet Activity: −
  Prostaglandin Synthesis: −
  Speeding of Wound Healing: −
[1]
  platelet prostaglandin function: irreversibly block platelet prostaglandin function
  prostaglandin activity in the vascular wall: reversibly decreases prostaglandin activity in the vascular wall

## [Cr] [Chromium]
Vascular tissue; Table 2
  Anti-Aggregant: 0
  Decreased Formation of Clots: 0
  Decreased Immune-Induced Lesions: 0
  Decreased Peroxidation: 0
  Decreases Serum Cholesterol: +
  Inhibition of Cholesterol Migration: 0
  Platelet Activity: 0
  Prostaglandin Synthesis: 0
  Speeding of Wound Healing: 0

## [Cu] [Copper]
Vascular tissue; Table 2
  Anti-Aggregant: 0
  Decreased Formation of Clots: 0
  Decreased Immune-Induced Lesions: +
  Decreased Peroxidation: 0
  Decreases Serum Cholesterol: +
  Inhibition of Cholesterol Migration: 0
  Platelet Activity: 0
  Prostaglandin Synthesis: 0
  Speeding of Wound Healing: +

## [Mg+2] [Magnesium]
Vascular tissue; Table 2
  Anti-Aggregant: 0
  Decreased Formation of Clots: 0
  Decreased Immune-Induced Lesions: 0
  Decreased Peroxidation: 0
  Decreases Serum Cholesterol: +
  Inhibition of Cholesterol Migration: 0
  Platelet Activity: +
  Prostaglandin Synthesis: 0
  Speeding of Wound Healing: +

## O=C(O)c1cccnc1 [Niacin, Niacin (nictotinic acid)]
[2]
  blood serum levels of cholesterol and triglycerides: reduce the blood serum levels of cholesterol and triglycerides
[2]; listed as niacin
  blood serum levels of cholesterol and triglycerides: reduced
Vascular tissue; Table 1
  Anti-Aggregant: 0
  Decreased Formation of Clots: 0
  Decreased Immune-Induced Lesions: 0
  Decreased Peroxidation: 0
  Decreases Serum Cholesterol: +
  Inhibition of Cholesterol Migration: 0
  Platelet Activity: 0
  Prostaglandin Synthesis: +
  Speeding of Wound Healing: 0
[3]
  undesirable effects of supplements: skin flush and dizziness

## [Se] [Selenium]
Vascular tissue; Table 2
  Anti-Aggregant: +
  Decreased Formation of Clots: 0
  Decreased Immune-Induced Lesions: +
  Decreased Peroxidation: +
  Decreases Serum Cholesterol: +
  Inhibition of Cholesterol Migration: 0
  Platelet Activity: +
  Prostaglandin Synthesis: +
  Speeding of Wound Healing: 0

## Cc1ncc(CO)c(CO)c1O.Cl [Vitamin B6]
Vascular tissue; Table 1
  Anti-Aggregant: 0
  Decreased Formation of Clots: 0
  Decreased Immune-Induced Lesions: 0
  Decreased Peroxidation: 0
  Decreases Serum Cholesterol: +
  Inhibition of Cholesterol Migration: 0
  Platelet Activity: 0
  Prostaglandin Synthesis: 0
  Speeding of Wound Healing: 0

## O=C1O[C@H]([C@@H](O)CO)C(O)=C1O [Vitamin C]
Vascular tissue; Table 1
  Anti-Aggregant: 0
  Decreased Formation of Clots: 0
  Decreased Immune-Induced Lesions: 0
  Decreased Peroxidation: 0
  Decreases Serum Cholesterol: +
  Inhibition of Cholesterol Migration: 0
  Platelet Activity: 0
  Prostaglandin Synthesis: +
  Speeding of Wound Healing: 0
[1]
  prostaglandin activity in the vascular wall: increases the level of activity of prostaglandins in the vascular wall
[1]; listed as vitamin C
  prostaglandin activity in the vascular wall: increased

## [Zn] [Zinc]
Vascular tissue; Table 2
  Anti-Aggregant: 0
  Decreased Formation of Clots: 0
  Decreased Immune-Induced Lesions: 0
  Decreased Peroxidation: 0
  Decreases Serum Cholesterol: +
  Inhibition of Cholesterol Migration: 0
  Platelet Activity: 0
  Prostaglandin Synthesis: 0
  Speeding of Wound Healing: 0
[4]
  incidence and severity of vascular lesions / atherosclerosis: reduced incidence of atherosclerosis in rats; also recorded: greatly reduced

## Vitamin A
[5]
  immune-triggered endothelial damage / immune-induced lesions: preventative effect on immune-induced lesions
[2]; at higher doses
  serum cholesterol levels: net increase in serum cholesterol levels
platelets
  anti-aggregant activity: mild anti-aggregant activity
Vascular tissue; Table 1
  Anti-Aggregant: +
  Decreased Formation of Clots: 0
  Decreased Immune-Induced Lesions: 0
  Decreased Peroxidation: 0
  Decreases Serum Cholesterol: −
  Inhibition of Cholesterol Migration: 0
  Platelet Activity: 0
  Prostaglandin Synthesis: 0
  Speeding of Wound Healing: +
[6]
  vascular wall wound healing / arterial healing: improve arterial healing; also recorded: speeds vascular wall wound healing

## Vitamin E
[5]
  immune-triggered endothelial damage / immune-induced lesions: preventative effect on immune-induced lesions; also recorded: protective effect
[2]; supplementation in vitamin E deficient animals
  serum and liver cholesterol levels: decrease serum and liver cholesterol levels in a dose- and time-dependent manner
platelets
  anti-aggregant activity: mild anti-aggregant effect
Vascular tissue; Table 1
  Anti-Aggregant: +
  Decreased Formation of Clots: 0
  Decreased Immune-Induced Lesions: +
  Decreased Peroxidation: +
  Decreases Serum Cholesterol: +
  Inhibition of Cholesterol Migration: 0
  Platelet Activity: 0
  Prostaglandin Synthesis: +
  Speeding of Wound Healing: 0
Atherosclerotic lesions
  severity of lesions: reduce the severity of lesions

## aspirin [Aspirin+ Vitamin−]
[7]; Men
  All Deaths No.: 45
  Ischemic Heart Disease No.: 8
  Myocardial Infarction No.: 7
  Other Heart Disease No.: 6
  Stroke No.: 2
  Total Cardiovascular Deaths No.: 24
  All Deaths RR: 1.00
  Ischemic Heart Disease RR: 1.40
  Myocardial Infarction RR: 0.88
  Other Heart Disease RR: 1.52
  Stroke RR: 0.50
  Total Cardiovascular Deaths RR: 1.09
[7]; Women
  All Deaths No.: 47
  Ischemic Heart Disease No.: 9
  Myocardial Infarction No.: 4
  Other Heart Disease No.: 6
  Stroke No.: 4
  Total Cardiovascular Deaths No.: 26
  All Deaths RR: 0.82
  Ischemic Heart Disease RR: 1.06
  Myocardial Infarction RR: 0.49
  Other Heart Disease RR: 0.81
  Stroke RR: 0.68
  Total Cardiovascular Deaths RR: 0.91

## aspirin [Aspirin++ Vitamin−]
[7]; Men
  All Deaths No.: 65
  Ischemic Heart Disease No.: 10
  Myocardial Infarction No.: 7
  Other Heart Disease No.: 7
  Stroke No.: 7
  Total Cardiovascular Deaths No.: 27
  All Deaths RR: 1.35
  Ischemic Heart Disease RR: 1.37
  Myocardial Infarction RR: 0.91
  Other Heart Disease RR: 1.57
  Stroke RR: 1.53
  Total Cardiovascular Deaths RR: 1.09
[7]; Women
  All Deaths No.: 77
  Ischemic Heart Disease No.: 14
  Myocardial Infarction No.: 10
  Other Heart Disease No.: 12
  Stroke No.: 9
  Total Cardiovascular Deaths No.: 45
  All Deaths RR: 1.36
  Ischemic Heart Disease RR: 1.50
  Myocardial Infarction RR: 1.25
  Other Heart Disease RR: 1.41
  Stroke RR: 1.58
  Total Cardiovascular Deaths RR: 1.48
